Results: US12012396B2, “HDAC inhibitor solid state forms” (Viracta Subsidiary, Inc., priority 2020, dated 2024)
Entries after “also recorded” stand apart in the source; their conditions may differ. Structures can show the parent of a compound that is named as a salt.

Assays:
Format in all cases: physicochemical
[1] = Thermodynamic aqueous solubility; details: for pH of saturated solution: water, after 24 hours equilibration
Method: Aqueous solubility was determined by suspending sufficient compound in 0.5 ml deionized water to give a maximum final concentration of 40 mg/mi of the parent free-form of the compound. The suspension was equilibrated at 25° C., on a Heidolph plate shaker set to 750 rpm for 24 hours. After equilibration, the appearance was noted and the pH of the saturated solution was measured. Samples forming suspensions were centrifuged for 4 min at 13,500 rpm. Samples were then filtered through a glass fiber C filter (particle retention 1.2 μm), before dilution with H2O as appropriate.
Quantitation was by HPLC (see Table 2 for parameters) with reference to a standard solution of approximately 0.15 mg/ml in DMSO. Different volumes of the standard, diluted and undiluted sample solutions were injected. The solubility was calculated using the peak areas determined by integration of the peak found at the same retention time as the principal peak in the standard injection. Analysis was performed on an AgilentHPl 100/Infinity II 1260 series system equipped with a diode array detector and using OpenLAB software.

[2] = Gravimetric Vapour Sorption (GVS); details: for XRPD post-GVS: residue after GVS
Method: Sorption isotherms were obtained using a SMS DVS Intrinsic moisture sorption analyser, controlled by DVS Intrinsic Control software. The sample temperature was maintained at 25° C. by the instrument controls. The humidity was controlled by mixing streams of dry and wet nitrogen, with a total flow rate of 200 ml/min. The relative humidity was measured by a calibrated Rotronic probe (dynamic range of 1.0-100% RH), located near the sample. The weight change, (mass relaxation) of the sample as a function of % RH was constantly monitored by a microbalance (accuracy ±0.005 mg). Typically, 20-30 mg of sample was placed in a tared mesh stainless steel basket under ambient conditions. The sample was loaded and unloaded at 40% RH and 25° C. (typical room conditions). A moisture sorption isotherm was performed as outlined below (2 scans per complete cycle). The standard isotherm was performed at 25° C. at 10% RH intervals over a 0-90% RH range. Typically, a double cycle (4 scans) was carried out. Data analysis was carried out within Microsoft Excel using the DVS Analysis Suite. [table]

[3] = Static storage stability at elevated temperature/humidity (XRPD, HPLC purity)
Method: XRPD diffractograms were collected on a Bruker D8 diffractometer using Cu Kα, radiation (40 kV, 40 mA) and a 0-20 goniometer fitted with a Ge monochromator. The incident beam passes through a 2.0 mm divergence slit followed by a 0.2 mm anti-scatter slit and knife edge. The diffracted beam passes through an 8.0 mm receiving slit with 2.5° Soller slits followed by the Lynxeye Detector. The software used for data collection and analysis was Diffrac Plus XRD Commander and Diffrac Plus EVA respectively.
XRPD diffractograms were collected on a PANalytical Empyrean diffractometer using Cu Kα, radiation (45 kV, 40 mA) in transmission geometry. A 0.5° slit, 4 mm mask and 0.04 rad Soller slits with a focusing mirror were used on the incident beam. A PIXcel3D detector, placed on the diffracted beam, was fitted with a receiving slit and 0.04 rad Soller slits. The software used for data collection was X'Pert Data Collector using X'Pert Operator Interface. The data were analyzed and presented using Diffrac Plus EVA or HighScore Plus.
Purity analysis was performed on an AgilentHP1100/Infinity 111260 series system equipped with a diode array detector and using OpenLAB software.

physchem = experiment: physchem
Description: There was insufficient residue to characterize these further.

[4] = 7 days / 1 week at 25° C./97% RH
[5] = 7 days / 1 week at 40° C./75% RH

Structure (SMILES) | XRPD post-GVS [2] | Solid form by XRPD after static storage [3, 4] | Solid form by XRPD after static storage [3, 5] | further results
O=C(NO)c1cnc(N2C[C@@H]3[C@H](C2)[C@H]3NCc2ccc3cc(F)ccc3n2)nc1 [Compound 1, N-hydroxy-2-{6-[(6-fluoro-quinolin-2-ylmethyl)-amino]-3-aza-bicyclo[3.1.0]hex-3-yl}pyrimidine-5-carboxamide] |  |  |  | Solubility in water ([1]; deionized water, 25° C., 24 hours, maximum final concentration 40 mg/ml, listed as Free base): essentially insoluble
O=C(NO)c1cnc(N2C[C@@H]3[C@H](C2)[C@H]3NCc2ccc3cc(F)ccc3n2)nc1 [Free Base Form A, N-hydroxy 2-{6-[(6-fluoro-quinolin-2-ylmethyl)-amino]-3-aza-bicyclo[3.1.0]hex-3-yl}pyrimidine-5-carboxamide] |  |  |  | pH of saturated solution [1]: (pH = 7.4)
O=C(NO)c1cnc(N2C[C@@H]3[C@H](C2)[C@H]3NCc2ccc3cc(F)ccc3n2)nc1 [Free Base Form B, N-hydroxy 2-{6-[(6-fluoro-quinolin-2-ylmethyl)-amino]-3-aza-bicyclo[3.1.0]hex-3-yl}pyrimidine-5-carboxamide] |  |  |  | pH of saturated solution [1]: (pH = 7.4)
O=C(NO)c1cnc(N2C[C@@H]3[C@H](C2)[C@H]3NCc2ccc3cc(F)ccc3n2)nc1 [Mesylate Form 2, N-hydroxy 2-{6-[(6-fluoro-quinolin-2-ylmethyl)-amino]-3-aza-bicyclo[3.1.0]hex-3-yl}pyrimidine-5-carboxamide] | unchanged; also recorded: XRPD Post-GVS: Mesylate Form 2 | unchanged; also recorded: Mesylate Form 2 | unchanged; also recorded: Mesylate Form 2 | HPLC purity after static storage [3, 4]: 99.5%; Solid form by XRPD after static storage ([3]; 7 days / 1 week at 25° C./97% RH, listed as Form 2): stable; HPLC purity after static storage [3, 5]: 99.5%; Solid form by XRPD after static storage ([3]; 7 days / 1 week at 40° C./75% RH, listed as Form 2): stable
O=C(NO)c1cnc(N2C[C@@H]3[C@H](C2)[C@H]3NCc2ccc3cc(F)ccc3n2)nc1 [Mesylate Form 3, N-hydroxy 2-{6-[(6-fluoro-quinolin-2-ylmethyl)-amino]-3-aza-bicyclo[3.1.0]hex-3-yl}pyrimidine-5-carboxamide] | XRPD Post-GVS: Poorly crystalline broad | unchanged; also recorded: Mesylate Form 3 | conversion to Mesylate Form 5 | Solubility residue pattern in FaSSGF (physchem): new solubility residue patterns; Water content after desorption ([2]; desorption cycle 1 down to 30% RH): 24.30%; Water loss, desorption cycle 1 ([2]; from 30-20% RH): Desorption Cycle 1 22%; Solid form by XRPD after static storage ([3]; 7 days / 1 week at 25° C./97% RH, listed as Form 3): remained as Mesylate Form 3; Solid form by XRPD after static storage ([3]; 7 days / 1 week at 40° C./75% RH, listed as Form 3): convert to Mesylate Form 5
O=C(NO)c1cnc(N2C[C@@H]3[C@H](C2)[C@H]3NCc2ccc3cc(F)ccc3n2)nc1 [Mesylate Form 4, N-hydroxy 2-{6-[(6-fluoro-quinolin-2-ylmethyl)-amino]-3-aza-bicyclo[3.1.0]hex-3-yl}pyrimidine-5-carboxamide] | conversion to Mesylate Form 1; also recorded: Post-GVS: Converted to Mesylate Form 1 by XRPD | conversion to Mesylate Form 1; also recorded: converted to Mesylate Form 1 | mixture of Mesylate Form 1 and Form 4 | Hysteresis in GVS ([2]; RH range of hysteresis): displaying hysteresis loop; Water content loss, desorption cycle 1 ([2]; between 20 to 10% RH): ~9%
O=C(NO)c1cnc(N2C[C@@H]3[C@H](C2)[C@H]3NCc2ccc3cc(F)ccc3n2)nc1 [Mesylate Form 5, N-hydroxy 2-{6-[(6-fluoro-quinolin-2-ylmethyl)-amino]-3-aza-bicyclo[3.1.0]hex-3-yl}pyrimidine-5-carboxamide] | unchanged; also recorded: stable; also recorded: XRPD Post-GVS: Mesylate Form 5 | remained as Mesylate Form 5; also recorded: Unchanged: Mesylate Form 5 | remained as Mesylate Form 5; also recorded: Unchanged: Mesylate Form 5 | Solubility residue pattern in FaSSGF (physchem): new solubility residue patterns
O=C(NO)c1cnc(N2C[C@@H]3[C@H](C2)[C@H]3NCc2ccc3cc(F)ccc3n2)nc1 [Mesylate Form 6, N-hydroxy 2-{6-[(6-fluoro-quinolin-2-ylmethyl)-amino]-3-aza-bicyclo[3.1.0]hex-3-yl}pyrimidine-5-carboxamide] |  | converted to Mesylate Form 1 | converted to Mesylate Form 1 | 
O=C(NO)c1cnc(N2C[C@@H]3[C@H](C2)[C@H]3NCc2ccc3cc(F)ccc3n2)nc1 [Mesylate Form 7, N-hydroxy 2-{6-[(6-fluoro-quinolin-2-ylmethyl)-amino]-3-aza-bicyclo[3.1.0]hex-3-yl}pyrimidine-5-carboxamide] |  | converted to Mesylate Form 1 | converted to Mesylate Form 1 | 
O=C(NO)c1cnc(N2C[C@@H]3[C@H](C2)[C@H]3NCc2ccc3cc(F)ccc3n2)nc1 [Mesylate Form 8, N-hydroxy 2-{6-[(6-fluoro-quinolin-2-ylmethyl)-amino]-3-aza-bicyclo[3.1.0]hex-3-yl}pyrimidine-5-carboxamide] |  | converted to Mesylate Form 1 | converted to Mesylate Form 1 | 
O=C(NO)c1cnc(N2C[C@@H]3[C@H](C2)[C@H]3NCc2ccc3cc(F)ccc3n2)nc1 [Mesylate Form 9, N-hydroxy 2-{6-[(6-fluoro-quinolin-2-ylmethyl)-amino]-3-aza-bicyclo[3.1.0]hex-3-yl}pyrimidine-5-carboxamide] |  | Poorly crystalline - Mesylate Form 1 | Mesylate Form 1 | Appearance after static storage ([3]; 1 week at 25° C./97% RH): Sample appeared wet - white solid still present; Appearance after static storage ([3]; 1 week at 40° C./75% RH): color change to yellow; also recorded: Sample appeared ‘damp’ - yellow solid present
O=C(NO)c1cnc(N2C[C@@H]3[C@H](C2)[C@H]3NCc2ccc3cc(F)ccc3n2)nc1 [amorphous mesylate salt, N-hydroxy 2-{6-[(6-fluoro-quinolin-2-ylmethyl)-amino]-3-aza-bicyclo[3.1.0]hex-3-yl}pyrimidine-5-carboxamide] |  |  |  | Solid form by XRPD after static storage ([3]; 7 days / 1 week at 25° C./97% RH, listed as amorphous): largely amorphous; Solid form by XRPD after static storage ([3]; 7 days / 1 week at 40° C./75% RH, listed as amorphous): largely amorphous
